Read-outs that look alike come from different tables or passages of the source. Blank lines part the entries; values can stand above or below the compound they belong to.
Tests used:
Assay in all cases: Ambit kinase profiling, competition binding
ACVR1B = target: T1, ACVR1B (Homo sapiens, UniProt P36896)
T1 construct: purchased Ambit Biosciences (KINOMEscan)
T1 sequence (P36896 24-505): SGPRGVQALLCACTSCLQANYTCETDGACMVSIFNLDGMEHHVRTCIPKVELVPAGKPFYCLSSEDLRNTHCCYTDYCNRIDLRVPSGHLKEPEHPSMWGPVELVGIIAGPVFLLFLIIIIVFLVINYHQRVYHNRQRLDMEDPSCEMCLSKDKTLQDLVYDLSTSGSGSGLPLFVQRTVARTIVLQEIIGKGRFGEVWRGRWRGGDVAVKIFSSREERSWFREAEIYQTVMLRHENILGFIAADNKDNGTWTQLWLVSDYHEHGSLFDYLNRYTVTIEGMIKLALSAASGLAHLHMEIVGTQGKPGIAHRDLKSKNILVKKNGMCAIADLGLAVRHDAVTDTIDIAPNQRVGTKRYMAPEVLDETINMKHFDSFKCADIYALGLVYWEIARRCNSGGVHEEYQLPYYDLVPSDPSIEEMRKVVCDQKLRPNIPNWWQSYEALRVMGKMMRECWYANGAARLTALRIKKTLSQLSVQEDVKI
Protocol: (§1) Also included in the kinase profile are four isoforms of PKC (δ, ε, η, θ) and eight isoforms of CAMKs (CAMKIα, δ, γ; CAMKIIα, β, δ, γ; CAMK4).
(§2) The global kinase profiling experiment was performed by Ambit Biosciences.

CSNK1G3 = target: T2, CSNK1G3 (Homo sapiens, UniProt Q9Y6M4); settings: for % Competition: 10 µM
T2 construct: purchased Ambit Biosciences (KINOMEscan)
T2 sequence (Q9Y6M4 whole entry): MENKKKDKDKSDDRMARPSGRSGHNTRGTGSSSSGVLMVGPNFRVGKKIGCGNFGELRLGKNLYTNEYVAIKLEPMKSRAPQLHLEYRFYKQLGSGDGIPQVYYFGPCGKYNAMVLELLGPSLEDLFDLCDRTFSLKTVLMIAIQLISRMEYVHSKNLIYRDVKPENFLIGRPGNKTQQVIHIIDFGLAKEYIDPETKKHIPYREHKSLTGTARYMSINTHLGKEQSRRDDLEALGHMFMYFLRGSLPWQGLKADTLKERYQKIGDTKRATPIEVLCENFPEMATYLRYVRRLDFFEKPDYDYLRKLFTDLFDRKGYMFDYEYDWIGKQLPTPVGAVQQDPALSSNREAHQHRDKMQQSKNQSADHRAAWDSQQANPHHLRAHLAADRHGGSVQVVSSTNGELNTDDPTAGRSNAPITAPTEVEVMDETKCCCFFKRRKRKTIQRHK
Protocol: as §1, §2

ERK8 = target: T3, ERK8 (Homo sapiens, UniProt Q8TD08)
T3 construct: purchased Ambit Biosciences (KINOMEscan)
T3 sequence (Q8TD08 1-544): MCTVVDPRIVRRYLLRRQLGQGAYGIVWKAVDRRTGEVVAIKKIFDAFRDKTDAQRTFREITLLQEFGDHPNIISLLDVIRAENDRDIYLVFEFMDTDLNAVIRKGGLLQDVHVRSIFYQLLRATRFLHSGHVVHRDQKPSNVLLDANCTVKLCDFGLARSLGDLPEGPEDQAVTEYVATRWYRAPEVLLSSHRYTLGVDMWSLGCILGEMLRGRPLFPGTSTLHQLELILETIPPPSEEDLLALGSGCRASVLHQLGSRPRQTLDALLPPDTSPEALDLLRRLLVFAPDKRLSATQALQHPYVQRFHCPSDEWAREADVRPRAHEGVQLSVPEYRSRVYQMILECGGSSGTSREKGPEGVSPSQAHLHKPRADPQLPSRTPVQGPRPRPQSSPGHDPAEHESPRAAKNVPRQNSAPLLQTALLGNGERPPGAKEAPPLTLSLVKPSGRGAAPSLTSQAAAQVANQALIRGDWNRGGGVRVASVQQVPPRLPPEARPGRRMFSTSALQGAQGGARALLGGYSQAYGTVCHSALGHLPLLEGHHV
Protocol: as §1, §2

HPK1 = target: T4, HPK1 (Homo sapiens, UniProt Q92918)
T4 construct: purchased Ambit Biosciences (KINOMEscan)
T4 sequence (Q92918 whole entry): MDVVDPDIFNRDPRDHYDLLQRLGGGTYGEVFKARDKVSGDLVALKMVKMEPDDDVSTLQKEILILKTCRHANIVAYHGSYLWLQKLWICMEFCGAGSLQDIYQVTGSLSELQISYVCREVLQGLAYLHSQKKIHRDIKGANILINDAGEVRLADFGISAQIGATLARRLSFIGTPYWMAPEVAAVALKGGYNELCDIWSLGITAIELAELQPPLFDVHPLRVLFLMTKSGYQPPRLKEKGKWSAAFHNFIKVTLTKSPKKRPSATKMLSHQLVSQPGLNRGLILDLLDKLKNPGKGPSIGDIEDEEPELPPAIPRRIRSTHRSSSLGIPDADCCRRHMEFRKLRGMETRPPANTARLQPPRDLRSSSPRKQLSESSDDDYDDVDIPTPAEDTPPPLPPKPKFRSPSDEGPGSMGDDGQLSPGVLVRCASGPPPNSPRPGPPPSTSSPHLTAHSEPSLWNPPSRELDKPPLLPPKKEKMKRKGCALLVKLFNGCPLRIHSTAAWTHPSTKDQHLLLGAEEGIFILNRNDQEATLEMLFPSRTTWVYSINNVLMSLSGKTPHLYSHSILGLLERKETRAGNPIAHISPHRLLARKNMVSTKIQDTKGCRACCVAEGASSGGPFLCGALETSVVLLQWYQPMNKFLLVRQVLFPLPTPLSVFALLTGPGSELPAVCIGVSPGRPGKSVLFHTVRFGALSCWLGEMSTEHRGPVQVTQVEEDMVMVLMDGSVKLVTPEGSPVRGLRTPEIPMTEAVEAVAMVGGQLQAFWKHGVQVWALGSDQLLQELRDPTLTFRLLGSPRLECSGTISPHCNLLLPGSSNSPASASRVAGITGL
Protocol: as §1, §2

JNK3 = target: T5, JNK3 (Homo sapiens, UniProt P53779); settings: for % Competition: 10 µM
T5 construct: purchased Ambit Biosciences (KINOMEscan)
T5 sequence (P53779 whole entry): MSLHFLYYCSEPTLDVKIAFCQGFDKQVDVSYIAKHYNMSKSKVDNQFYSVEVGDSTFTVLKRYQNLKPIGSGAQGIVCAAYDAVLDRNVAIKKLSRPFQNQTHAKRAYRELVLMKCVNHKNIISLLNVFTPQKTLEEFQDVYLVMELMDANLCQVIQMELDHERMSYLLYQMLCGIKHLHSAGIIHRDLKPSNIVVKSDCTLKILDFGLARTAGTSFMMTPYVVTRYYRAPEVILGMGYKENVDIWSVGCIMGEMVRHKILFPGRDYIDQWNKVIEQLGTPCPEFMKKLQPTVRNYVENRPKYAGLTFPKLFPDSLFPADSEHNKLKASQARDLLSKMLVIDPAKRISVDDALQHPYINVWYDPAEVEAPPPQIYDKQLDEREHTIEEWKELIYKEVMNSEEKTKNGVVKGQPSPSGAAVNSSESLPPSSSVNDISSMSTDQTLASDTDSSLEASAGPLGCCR
Protocol: as §1, §2

MAP4K4 = target: T6, MAP4K4 (Homo sapiens, UniProt O95819)
T6 construct: purchased Ambit Biosciences (KINOMEscan)
Protocol: as §1, §2

MEK3 = target: T7, MEK3 (Homo sapiens, UniProt P46734)
T7 construct: purchased Ambit Biosciences (KINOMEscan)
T7 sequence (P46734 1-347): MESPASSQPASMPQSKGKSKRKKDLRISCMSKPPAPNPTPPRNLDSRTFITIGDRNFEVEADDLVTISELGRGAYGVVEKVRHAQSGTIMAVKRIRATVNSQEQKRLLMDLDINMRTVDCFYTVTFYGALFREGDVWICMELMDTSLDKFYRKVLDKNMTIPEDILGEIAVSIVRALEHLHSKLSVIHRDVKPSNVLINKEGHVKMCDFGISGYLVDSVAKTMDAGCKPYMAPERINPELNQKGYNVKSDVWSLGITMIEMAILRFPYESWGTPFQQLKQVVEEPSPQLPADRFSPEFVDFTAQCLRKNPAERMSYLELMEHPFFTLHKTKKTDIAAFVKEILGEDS
Protocol: as §1, §2

MUSK = target: T8, MUSK (Homo sapiens, UniProt O15146)
T8 construct: purchased Ambit Biosciences (KINOMEscan)
T8 sequence (O15146 24-869): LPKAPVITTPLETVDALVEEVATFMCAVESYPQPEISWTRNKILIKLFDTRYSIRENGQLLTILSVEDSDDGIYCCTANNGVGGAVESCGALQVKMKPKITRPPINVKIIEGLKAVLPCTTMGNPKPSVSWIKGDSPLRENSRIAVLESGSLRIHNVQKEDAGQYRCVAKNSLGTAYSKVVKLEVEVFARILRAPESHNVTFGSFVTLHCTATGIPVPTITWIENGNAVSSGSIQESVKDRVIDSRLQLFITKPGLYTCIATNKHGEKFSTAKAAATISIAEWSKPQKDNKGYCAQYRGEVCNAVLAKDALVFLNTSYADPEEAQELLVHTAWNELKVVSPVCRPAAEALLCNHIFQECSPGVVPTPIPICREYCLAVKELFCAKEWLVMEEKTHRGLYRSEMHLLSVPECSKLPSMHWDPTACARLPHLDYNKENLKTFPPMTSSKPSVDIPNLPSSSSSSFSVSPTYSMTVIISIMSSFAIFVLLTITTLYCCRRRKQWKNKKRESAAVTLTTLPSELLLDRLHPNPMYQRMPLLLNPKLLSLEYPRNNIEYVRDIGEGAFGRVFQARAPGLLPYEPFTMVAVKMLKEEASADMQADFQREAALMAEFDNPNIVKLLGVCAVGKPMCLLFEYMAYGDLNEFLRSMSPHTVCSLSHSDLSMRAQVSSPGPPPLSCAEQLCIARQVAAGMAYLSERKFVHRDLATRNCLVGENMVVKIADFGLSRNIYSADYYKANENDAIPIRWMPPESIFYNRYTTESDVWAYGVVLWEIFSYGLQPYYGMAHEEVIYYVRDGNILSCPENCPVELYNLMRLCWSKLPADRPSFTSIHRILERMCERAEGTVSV
Protocol: as §1, §2

RET = target: T9, RET (Homo sapiens, UniProt P07949)
T9 construct: purchased Ambit Biosciences (KINOMEscan)
T9 sequence (P07949 29-1114): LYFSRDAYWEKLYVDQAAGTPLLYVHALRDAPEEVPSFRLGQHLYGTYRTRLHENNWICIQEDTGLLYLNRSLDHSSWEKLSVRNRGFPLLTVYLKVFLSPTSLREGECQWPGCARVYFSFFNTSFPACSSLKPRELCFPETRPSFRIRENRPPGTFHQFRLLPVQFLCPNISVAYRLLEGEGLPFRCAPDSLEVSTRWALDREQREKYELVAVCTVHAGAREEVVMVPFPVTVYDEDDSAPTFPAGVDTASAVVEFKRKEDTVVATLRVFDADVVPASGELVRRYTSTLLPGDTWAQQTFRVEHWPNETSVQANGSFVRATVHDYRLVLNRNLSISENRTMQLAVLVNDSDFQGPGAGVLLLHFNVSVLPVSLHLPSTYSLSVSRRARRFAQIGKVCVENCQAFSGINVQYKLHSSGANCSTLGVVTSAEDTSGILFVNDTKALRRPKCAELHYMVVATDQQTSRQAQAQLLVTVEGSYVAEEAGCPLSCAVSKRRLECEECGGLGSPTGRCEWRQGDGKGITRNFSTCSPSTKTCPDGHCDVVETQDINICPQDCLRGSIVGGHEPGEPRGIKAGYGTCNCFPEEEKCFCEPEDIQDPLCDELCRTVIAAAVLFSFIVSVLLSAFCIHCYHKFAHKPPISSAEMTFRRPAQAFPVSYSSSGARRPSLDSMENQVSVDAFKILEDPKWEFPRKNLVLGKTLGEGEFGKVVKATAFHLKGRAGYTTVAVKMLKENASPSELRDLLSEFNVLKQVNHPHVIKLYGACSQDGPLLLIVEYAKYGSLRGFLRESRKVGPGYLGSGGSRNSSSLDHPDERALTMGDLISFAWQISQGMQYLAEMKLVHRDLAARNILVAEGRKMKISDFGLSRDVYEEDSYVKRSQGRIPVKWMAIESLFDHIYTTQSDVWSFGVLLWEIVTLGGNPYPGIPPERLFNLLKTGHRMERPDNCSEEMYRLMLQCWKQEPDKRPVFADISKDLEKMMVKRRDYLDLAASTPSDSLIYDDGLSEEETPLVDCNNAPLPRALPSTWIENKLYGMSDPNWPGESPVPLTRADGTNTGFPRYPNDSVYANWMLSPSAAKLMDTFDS
Protocol: as §1, §2

TNIK = target: T10, TNIK (Homo sapiens, UniProt Q9UKE5)
T10 construct: purchased Ambit Biosciences (KINOMEscan)
T10 sequence (Q9UKE5 whole entry): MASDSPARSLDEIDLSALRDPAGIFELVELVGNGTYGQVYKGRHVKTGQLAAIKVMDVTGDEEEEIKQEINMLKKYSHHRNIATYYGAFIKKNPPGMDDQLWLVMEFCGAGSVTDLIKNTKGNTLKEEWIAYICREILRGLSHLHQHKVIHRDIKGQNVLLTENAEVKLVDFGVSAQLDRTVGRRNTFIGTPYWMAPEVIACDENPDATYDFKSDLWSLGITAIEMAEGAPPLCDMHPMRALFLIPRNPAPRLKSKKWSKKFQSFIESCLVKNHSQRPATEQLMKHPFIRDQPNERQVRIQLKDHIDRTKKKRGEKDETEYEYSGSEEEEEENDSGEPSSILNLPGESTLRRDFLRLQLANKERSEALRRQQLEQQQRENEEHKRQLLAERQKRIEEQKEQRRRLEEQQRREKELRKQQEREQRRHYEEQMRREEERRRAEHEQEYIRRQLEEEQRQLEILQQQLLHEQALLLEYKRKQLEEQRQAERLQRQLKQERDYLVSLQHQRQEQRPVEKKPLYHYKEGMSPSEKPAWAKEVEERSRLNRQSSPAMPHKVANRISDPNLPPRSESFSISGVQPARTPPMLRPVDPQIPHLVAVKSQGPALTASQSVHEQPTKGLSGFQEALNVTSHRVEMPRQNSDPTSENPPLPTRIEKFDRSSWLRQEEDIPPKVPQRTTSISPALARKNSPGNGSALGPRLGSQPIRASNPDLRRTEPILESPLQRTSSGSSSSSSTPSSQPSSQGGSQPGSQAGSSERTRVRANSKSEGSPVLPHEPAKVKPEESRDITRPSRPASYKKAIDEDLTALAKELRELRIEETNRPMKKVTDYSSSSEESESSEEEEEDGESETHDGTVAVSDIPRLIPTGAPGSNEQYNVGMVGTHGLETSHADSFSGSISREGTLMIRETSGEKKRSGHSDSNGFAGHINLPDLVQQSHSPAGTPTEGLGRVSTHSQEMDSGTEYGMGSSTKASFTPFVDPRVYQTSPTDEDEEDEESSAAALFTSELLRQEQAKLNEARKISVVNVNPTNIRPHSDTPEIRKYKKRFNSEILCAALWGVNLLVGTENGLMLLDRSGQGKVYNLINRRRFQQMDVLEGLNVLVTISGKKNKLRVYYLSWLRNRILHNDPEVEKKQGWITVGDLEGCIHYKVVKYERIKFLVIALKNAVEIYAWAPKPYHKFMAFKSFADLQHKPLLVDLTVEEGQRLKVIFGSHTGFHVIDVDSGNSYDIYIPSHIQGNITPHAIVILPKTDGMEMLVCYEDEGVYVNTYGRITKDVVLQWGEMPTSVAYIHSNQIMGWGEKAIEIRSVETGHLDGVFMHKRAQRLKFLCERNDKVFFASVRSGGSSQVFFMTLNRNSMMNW
Protocol: as §1, §2

PKCδ = PKCδ (Homo sapiens, UniProt Q05655); design: purchased Ambit Biosciences (KINOMEscan); settings: for competition: PKC δ, 10 µM
Chain of PKCδ (Q05655 whole entry): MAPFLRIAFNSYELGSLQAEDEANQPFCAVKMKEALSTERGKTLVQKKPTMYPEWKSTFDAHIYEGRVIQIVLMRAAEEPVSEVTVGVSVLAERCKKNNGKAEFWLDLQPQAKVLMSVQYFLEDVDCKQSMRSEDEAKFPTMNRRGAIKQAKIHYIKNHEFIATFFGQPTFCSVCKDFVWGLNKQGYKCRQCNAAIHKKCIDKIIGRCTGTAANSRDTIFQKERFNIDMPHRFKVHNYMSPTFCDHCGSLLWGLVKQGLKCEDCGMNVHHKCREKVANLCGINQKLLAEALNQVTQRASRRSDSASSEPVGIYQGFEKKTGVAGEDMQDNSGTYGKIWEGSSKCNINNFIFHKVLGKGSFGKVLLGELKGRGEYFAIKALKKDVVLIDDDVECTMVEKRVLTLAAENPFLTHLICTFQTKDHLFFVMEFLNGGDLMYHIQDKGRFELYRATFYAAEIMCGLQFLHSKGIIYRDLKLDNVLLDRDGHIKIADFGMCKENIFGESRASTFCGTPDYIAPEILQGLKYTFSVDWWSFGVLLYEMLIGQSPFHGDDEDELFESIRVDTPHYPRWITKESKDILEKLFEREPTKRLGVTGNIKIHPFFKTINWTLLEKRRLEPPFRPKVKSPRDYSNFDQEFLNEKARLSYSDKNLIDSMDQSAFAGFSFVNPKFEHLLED
Protocol: as §1, §2

- inhibition at 10 µM (ACVR1B; ACVR1B, 10 µM, read-out: % Competition): 91%
- % Competition (CSNK1G3): 86%
- inhibition at 10 µM (HPK1; HPK1, 10 µM, read-out: % Competition): 67%
- % Competition (JNK3): 88%
- inhibition at 10 µM (MAP4K4; MAP4K4, 10 µM, read-out: % Competition): 84%
- inhibition at 10 µM (MEK3; MEK3, 10 µM, read-out: % Competition): 99%
- inhibition at 10 µM (MUSK; MUSK, 10 µM, read-out: % Competition): 94%
- inhibition at 10 µM (RET; RET, 10 µM, read-out: % Competition): 68%
- inhibition at 10 µM (TNIK; TNIK, 10 µM, read-out: % Competition): 96%
- competition (PKCδ): < 50%
SMILES: Fc1ccc(-c2c(-c3ccncc3)[nH]c3nccnc23)cc1 [Compound 122]
- inhibition at 10 µM (ERK8; ERK8, 10 µM, read-out: % Competition): 98%

SMILES: CC(O)CNc1cc(-c2[nH]c3cccnc3c2-c2ccc(F)cc2)ccn1 (stereo not drawn) [Compound 140]
- inhibition at 10 µM (ACVR1B; read-out: % Competition): < 50%
- % Competition (CSNK1G3): 91%
- inhibition at 10 µM (ERK8; read-out: % Competition): < 50%
- inhibition at 10 µM (HPK1; read-out: % Competition): < 50%
- % Competition (JNK3): 83%
- inhibition at 10 µM (MAP4K4; read-out: % Competition): < 50%
- inhibition at 10 µM (MEK3; read-out: % Competition): < 50%
- inhibition at 10 µM (MUSK; read-out: % Competition): < 50%
- inhibition at 10 µM (RET; read-out: % Competition): < 50%
- inhibition at 10 µM (TNIK; read-out: % Competition): < 50%
- competition (PKCδ): < 50%

- inhibition at 10 µM (ACVR1B; ACVR1B, compound concentration 10 uM, read-out: Percent Competition): 91%
- Percent Competition (CSNK1G3; compound concentration 10 uM): 86%
- inhibition at 10 µM (HPK1; HPK1, compound concentration 10 uM, read-out: Percent Competition): 67%
- Percent Competition (JNK3; compound concentration 10 uM): 88%
- inhibition at 10 µM (MAP4K4; MAP4K4, compound concentration 10 uM, read-out: Percent Competition): 84%
- inhibition at 10 µM (MEK3; MEK3, compound concentration 10 uM, read-out: Percent Competition): 99%
- inhibition at 10 µM (MUSK; MUSK, compound concentration 10 uM, read-out: Percent Competition): 94%
- inhibition at 10 µM (RET; RET, compound concentration 10 uM, read-out: Percent Competition): 68%
- inhibition at 10 µM (TNIK; TNIK, compound concentration 10 uM, read-out: Percent Competition): 96%
- inhibition at 10 µM (PKCδ; PRKCD, compound concentration 10 uM, read-out: Percent Competition): < 50%
SMILES: Fc1ccc(-c2c(-c3ccncc3)[nH]c3nccnc23)cc1 [RO1155697-000-005]
- inhibition at 10 µM (ERK8; ERK8, compound concentration 10 uM, read-out: Percent Competition): 98%

From article PMC3445516 (PLoS ONE, 2012)
